Data from patent US11214594B2, “Antimicrobial peptide having synergistic antibacterial effect with antibiotics on multidrug resistant bacteria, and use thereof” (priority 2016, dated 2022).
≈ marks a conversion by molar mass, not a printed value. Read-outs that look alike come from different tables or passages of the source. Where a SMILES comes first, the peptide text is derived from it. [ ]: non-standard residue; d: D form.

Assays:
A. baumannii [1] = experiment: MIC of antimicrobial peptide during combined treatment with antibiotic; assay type: cell-based, Acinetobacter baumannii
Procedure, shortened: (§1)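 Antibiotic MIC came from antibiotic dilutions added to bacteria (2×10^6 CFU/ml, MH medium) already combined with peptide serially diluted 2:1 from its own MIC. Swapping the roles of the two agents gave the peptide MIC.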

MDRAB 12035 = experiment: as above; assay type: cell-based, Acinetobacter baumannii
Procedure, shortened: as §1

A. baumannii [2] = experiment: MIC of antibiotic during combined treatment with antimicrobial peptide; assay type: cell-based, Acinetobacter baumannii; conditions: A. baumannii
Procedure, shortened: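 MIC values for mixed peptide plus antibiotic solutions were measured in MH medium.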

MDRAB 12036 = assay type: cell-based, Acinetobacter baumannii
Procedure, shortened: (§2)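 Peptides were serially diluted twofold in Mueller-Hinton medium and combined 1:1 with bacterial suspensions prepared at 2×10^6 CFU. Readout was the minimal inhibitory concentration, i.e. the lowest concentration with no growth.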

E. coli [3] = experiment: microbe, parasite or virus in culture; assay type: cell-based, Escherichia coli; conditions: 16 h
Procedure, shortened: as §2

MDREC 1229 [4] = experiment: microbe, parasite or virus in culture; assay type: cell-based, Escherichia coli
Procedure, shortened: as §2

S. aureus = experiment: microbe, parasite or virus in culture; assay type: cell-based, Staphylococcus aureus
Procedure, shortened: as §2

E. coli [5] = assay type: cell-based, Escherichia coli; conditions: E. coli
Procedure, shortened: as §1

MDREC 1229 [6] = assay type: cell-based, Escherichia coli
Procedure, shortened: as §1

[7] = erythromycin 4 μg/ml (Conc./MIC 1/8)
[8] = erythromycin 8 μg/ml (Conc./MIC 1/4)
[9] = erythromycin 16 μg/ml (Conc./MIC 1/2)
[10] = erythromycin 32 μg/ml (Conc./MIC 1)
[11] = vancomycin 512 μg/ml (Conc./MIC 1/2)
[12] = vancomycin 1024 μg/ml (Conc./MIC 1)
[13] = combined with peptide at 1 μg/ml
[14] = combined with peptide at 2 μg/ml
[15] = combined with peptide at 4 μg/ml
[16] = combined with peptide at 6 μg/ml
[17] = combined with peptide at 8 μg/ml
[18] = combined with peptide at 16 μg/ml
[19] = combined with peptide at 32 μg/ml
[20] = combined with peptide at 64 μg/ml

## CC[C@H](C)[C@H](NC(=O)[C@H](CCCCN)NC(=O)[C@H](Cc1c[nH]c2ccccc12)NC(=O)[C@@H](N)CCCNC(=N)N)C(=O)N[C@@H](Cc1ccccc1)C(=O)N[C@@H](CCCCN)C(=O)N[C@@H](CCCCN)C(=O)N[C@H](C(=O)N[C@H](CCCCN)C(=O)N[C@@H](CCCCN)C(=O)N[C@@H](CC(C)C)C(=O)N[C@@H](CC(C)C)C(=O)N[C@@H](Cc1c[nH]cn1)C(=O)N[C@@H](CO)C(=O)N[C@@H](Cc1ccccc1)C(=O)N[C@@H](CCCCN)C(=O)N[C@@H](CCCCN)C(=O)N[C@@H](Cc1ccccc1)C(N)=O)[C@@H](C)CC [PapMA-15, RWK IFK KIk KLL HSF KKF-NH2] (H-RWKIFKKI[dK]KLLHSFKKF-NH2; N-terminus assumed)
A. baumannii [1]; [7]
  Peptide MIC during treatment with antibiotic: 4 µg/mL
A. baumannii [1]; [8]
  Peptide MIC during treatment with antibiotic: 4 µg/mL
A. baumannii [1]; [9]
  Peptide MIC during treatment with antibiotic: 4 µg/mL
A. baumannii [1]; [10]
  Peptide MIC during treatment with antibiotic: 0 µg/mL
A. baumannii [1]; linezolid 32 μg/ml (Conc./MIC 1/8)
  Peptide MIC during treatment with antibiotic: 8 µg/mL
A. baumannii [1]; linezolid 64 μg/ml (Conc./MIC 1/4)
  Peptide MIC during treatment with antibiotic: 4 µg/mL
A. baumannii [1]; linezolid […] (Conc./MIC 1)
  Peptide MIC during treatment with antibiotic: 0 µg/mL
A. baumannii [1]; linezolid […] (Conc./MIC 1/2)
  Peptide MIC during treatment with antibiotic: 2 µg/mL
A. baumannii [1]; [11]
  Peptide MIC during treatment with antibiotic: 0.25 µg/mL
A. baumannii [1]; [12]
  Peptide MIC during treatment with antibiotic: 0 µg/mL
A. baumannii [1]; vancomycin […] (Conc./MIC 1/4)
  Peptide MIC during treatment with antibiotic: 0.5 µg/mL
A. baumannii [1]; vancomycin […] (Conc./MIC 1/8)
  Peptide MIC during treatment with antibiotic: 2 µg/mL
MDRAB 12035; [7]
  Peptide MIC during treatment with erythromycin: 4 µg/mL
MDRAB 12035; [8]
  Peptide MIC during treatment with erythromycin: 4 µg/mL
MDRAB 12035; [9]
  Peptide MIC during treatment with erythromycin: 4 µg/mL
MDRAB 12035; [10]
  Peptide MIC during treatment with erythromycin: 0 µg/mL
MDRAB 12035; linezolid 64 μg/ml (Conc./MIC 1/8)
  Peptide MIC during treatment with linezolid: 4 µg/mL
MDRAB 12035; linezolid 512 μg/ml (Conc./MIC 1)
  Peptide MIC during treatment with linezolid: 0 µg/mL
MDRAB 12035; linezolid […] (Conc./MIC 1/2)
  Peptide MIC during treatment with linezolid: 1 µg/mL
MDRAB 12035; linezolid […] (Conc./MIC 1/4)
  Peptide MIC during treatment with linezolid: 4 µg/mL
MDRAB 12035; [11]
  Peptide MIC during treatment with vancomycin: 2 µg/mL
MDRAB 12035; [12]
  Peptide MIC during treatment with vancomycin: 1 µg/mL
MDRAB 12035; vancomycin […] (Conc./MIC 1/4)
  Peptide MIC during treatment with vancomycin: 2 µg/mL
MDRAB 12035; vancomycin […] (Conc./MIC 1/8)
  Peptide MIC during treatment with vancomycin: 4 µg/mL
A. baumannii [2]; [13]
  Antibiotic MIC, Erythromycin: 32 µg/mL
  Antibiotic MIC, Linezolid: >128 µg/mL
  Antibiotic MIC, Vancomycin: >128 µg/mL
A. baumannii [2]; [14]
  Antibiotic MIC, Erythromycin: 32 µg/mL
  Antibiotic MIC, Linezolid: 128 µg/mL
  Antibiotic MIC, Vancomycin: 128 µg/mL
A. baumannii [2]; [15]
  Antibiotic MIC, Erythromycin: 16 µg/mL
  Antibiotic MIC, Linezolid: 64 µg/mL
  Antibiotic MIC, Vancomycin: 32 µg/mL
A. baumannii [2]; [16]
  Antibiotic MIC, Erythromycin: 2 µg/mL
  Antibiotic MIC, Linezolid: 32 µg/mL
  Antibiotic MIC, Vancomycin: 16 µg/mL
A. baumannii [2]; [17]
  Antibiotic MIC, Erythromycin: 0.5 µg/mL
  Antibiotic MIC, Linezolid: 16 µg/mL
  Antibiotic MIC, Vancomycin: 16 µg/mL
A. baumannii [2]; [18]
  Antibiotic MIC, Erythromycin: 0.25 µg/mL
  Antibiotic MIC, Linezolid: 2 µg/mL
  Antibiotic MIC, Vancomycin: 8 µg/mL
A. baumannii [2]; [19]
  Antibiotic MIC, Erythromycin: 0 µg/mL
  Antibiotic MIC, Linezolid: 0 µg/mL
  Antibiotic MIC, Vancomycin: 0 µg/mL
A. baumannii [2]; [20]
  Antibiotic MIC, Erythromycin: 0 µg/mL
  Antibiotic MIC, Linezolid: 0 µg/mL
  Antibiotic MIC, Vancomycin: 0 µg/mL
MDRAB 12036
  Minimal inhibitory concentration MIC: 32 µg/mL (≈ 13.5 µM)
E. coli [3]
  Minimal inhibitory concentration MIC: 32 µg/mL (≈ 13.5 µM)
MDREC 1229 [4]
  Minimal inhibitory concentration MIC: 32 µg/mL (≈ 13.5 µM)
  Peptide MIC, peptide alone: 32 µg/mL
S. aureus
  Minimal inhibitory concentration MIC: >128 µg/mL
E. coli [5]; with Erythromycin […] (Conc./MIC 1)
  Peptide MIC: 0 µg/mL
E. coli [5]; with Linezolid […] (Conc./MIC 1)
  Peptide MIC: 0 µg/mL
E. coli [5]; with Vancomycin 1024 μg/ml (Conc./MIC 1)
  Peptide MIC: 0 µg/mL
MDREC 1229 [6]; erythromycin 32 μg/ml (Conc./MIC 1/8)
  Peptide MIC during treatment with antibiotic: 2 µg/mL
MDREC 1229 [6]; erythromycin 64 μg/ml (Conc./MIC 1/4)
  Peptide MIC during treatment with antibiotic: 2 µg/mL
MDREC 1229 [6]; erythromycin […] (Conc./MIC 1)
  Peptide MIC during treatment with antibiotic: 0 µg/mL
